Assay results as given in patent publication US6258845A (priority 1999, dated 2001).
Entries after “also recorded” stand apart in the source; their conditions may differ. Like-named read-outs stand apart in the source and are kept apart here.

Columns and labels:
[1] = system: Caco-2 parental cells, Ki-ras clone #60 and Ki-ras clone #66; assay: Viable cell number (trypan blue dye exclusion), growth of Caco-2 parental and Ki-ras transfected cells; type: cell-based, human; settings: 5 mM DFMO continuously, short-term growth
Protocol: Effect of sulindac sulfide and sulfone on the growth of Ki-ras transfected cells. […] Viable cell number was determined by trypan blue dye exclusion.
Caco-2 cells were maintained in Modified Eagle Media (GIBCO, Grand Island, N.Y.) supplemented with 10% fetal bovine serum and a 1% penicillin (10,000 units/ml)-streptomycin (10,000 mg/ml) solution (GIBCO, Grand Island, N.Y.). Transfected Caco-2 cells resistant to neomycin were maintained in 400 μg/ml G418. Cells were maintained at 37° in the presence of 5% CO2 in air.
All cells were passed into new medium every two to three days, just prior to confluence. Drug additions were performed at the time of cell seeding and in MEM for each cell line unless otherwise noted. […] The two metabolites of sulindac, sulindac sulfone and sulfide, were obtained from Cell Pathways, Inc. (Horsham Pa.).
Caco-2 cells were removed from the monolayer by treatment with trypsin (1500 units/ml, Calbiochem, San Diego, Calif.)-EDTA (.7mM) and counted using a hemocytometer. A sample of the cell suspension was combined in a 1:1 volume ratio with trypan blue dye (GIBCO, Grand Island, N.Y.), and at least two independently prepared suspensions were counted on a hemocytometer, two counts each. For all cell types, viability was determined by the percentage of cells able to exclude the trypan blue dye.

[2] = system: Caco-2 parental cells; assay: Induction of apoptosis (light microscopy) in Caco-2 parental cells; type: cell-based, human; settings: 5 mM DFMO, with or without sulindac sulfone (so in the source); parental Caco-2
Protocol: (§1) FIG. 3. […] Apoptosis was determined by light microscopy.
(§2) FIG. 8. […] Cells were grown over a period of 6 days. Cells were harvested at various days (0, 2, 4 and 6 days), spun onto slides and stained. Apoptosis was determined by light microscopy. Percentage of apoptotic cells was calculated as the number of apoptotic cells out of the total cells counted times 100. At least 500 cells were counted for each sample.
(§3) Cells were grown over a period of 6 days. Cells were harvested at various days (0, 2, 4 and 6 days), spun onto slides and stained. Apoptosis was determined by light microscopy. Percentage of apoptotic cells was calculated as the number of apoptotic cells out of the total cells counted times 100.

[3] = system: Ki-ras clone #60; assay: Induction of apoptosis (light microscopy) in Ki-ras clone 60; type: cell-based, human; settings: day 6, 5 mM DFMO, with or without sulindac sulfone (so in the source)
Protocol: as §1, §2, §3

[4] = system: Ki-ras clone #60 cells; assay: Clonogenic assay (colony-forming efficiency), Ki-ras clone 60; type: cell-based, human; settings: Homo sapiens, Caco-2, 24 h; read-out: decrease in cell survival compared to untreated transfectants
[5] = system: colorectal tissue polyamine contents
Protocol: All biopsies were performed between 9:00 a.m. and noon to avoid possible effects of diurnal variation in laboratory endpoints.

[6] = system: polyamine levels; type: in vivo, human
Excerpt: Based on this information a dose of 0.2 Gm/M^2 /day will be used for the current trial.

[7] = system: tissue polyamine contents (Barrett's lesion, normal squamous esophagus, gastric tissue, small bowel); assay: DFMO in Barrett's esophagus patients, tissue polyamine contents; type: in vivo, human; settings: 1.5 gm/m^2 per day, 12 weeks
Excerpt: ODC activities and polyamine contents varied in each site analyzed. The rank orders were Barrett's>small bowel~normal esophagus>gastric tissue for ODC activities, and small bowel≥Barrett's~normal esophagus>gastric tissue for putrescine contents.

[8] = system: ODC and polyamine contents; assay: DFMO effect on colorectal and buccal mucosa ODC and polyamine contents; type: in vivo, human
Excerpt: When the inventors started these studies, their hope was that the effects of polyamine syntheses inhibitors in easily accessible tissues, such as buccal mucosa in the oral cavity, would be representative of inhibitor effects in less accessible tissue of the gastrointestinal tract. To test this hypothesis, the inventors measured ODC activity and polyamine contents in buccal mucosa isolated from normal human volunteers. […] From these studies, the inventors concluded that the buccal mucosal was not a useful surrogate tissue in which to measure the effects of polyamine synthesis inhibitor on other GI tissues.

[9] = system: Caco-2 parental cells; settings: long-term survival, Caco-2 cells
[10] = human, in vivo
[11] = system: Caco-2 parental cells; assay: cells; settings: Homo sapiens, Caco-2, 24 h, read-out: cell survival
[12] = system: Ki-ras clones 60 and 66; assay: cells; settings: Homo sapiens
[13] = system: tumors harboring Ki-ras mutations in AOM-treated rats; settings: cited from earlier work
[14] = system: carcinogenesis in rodent/animal models; settings: in vivo; cited from earlier work
[15] = system: hearing; settings: cited from earlier work
[16] = system: tumor putrescine levels; settings: DFMO infusion, cited from earlier work
[17] = system: platelet counts; settings: continuous infusion for 12 days; cited from earlier work
[18] = system: MCA sarcoma; settings: in vivo; cited from earlier work
[19] = system: ornithine decarboxylase (ODC); settings: cited from earlier work
[20] = system: intracellular putrescine and spermidine; settings: cited from earlier work
[21] = system: human cancer; settings: cited from earlier work
[22] = system: hearing; assay: DFMO effects on hearing / ototoxicity in patients; settings: 0.25 g/m^2 /d
[23] = system: AOM-treated rat model of colon carcinogenesis; settings: in vivo; cited from earlier work
[24] = cited from earlier work
[25] = system: colorectal adenomas/polyps; settings: cited from earlier work
[26] = sulindac 400 mg per day; cited from earlier work
[27] = system: COX (cyclooxygenase); settings: cited from earlier work
[28] = cited from earlier work; remark: listed apart in the source
[29] = system: colorectal adenomas/polyps; assay: Sulindac effect on colorectal adenomas/polyps in patients; settings: randomized phase IIb
[30] = system: AOM-treated rat model of colon carcinogenesis; assay: Colon carcinogenesis in the AOM-treated rat / rodent model; settings: sulfoxide and sulfone forms
[31] = listed as α-Difluoromethylornithine (DFMO)

NCCCC(N)(C(=O)O)C(F)F (racemic) [DFMO, 2(Difluoromethyl)-DL-ornithine]
trypan blue dye exclusion [1]: exclusion of trypan blue dye in either the Ki-ras cells or parentals was unaffected | increase in apoptosis [2]: only a modest increase in apoptosis | percentage of apoptotic cells [3]: 15% | cytotoxicity at 5000 µM [4]: 60% | lowest dose safe and effective in reducing colorectal mucosal polyamine contents ([5]; daily orally, 28 days): 0.25 gm/m^2 | lowest dose with evident effects on polyamine metabolism ([5]; phase IIa, one month): 0.2 Gm/M^2 /day | lowest dose decreasing putrescine content ([5]; single daily oral doses, 4 wk, colorectal biopsies): 0.25 gm/m^2 | lowest dose that may produce a persistent effect on polyamine levels ([6]; 12 months): 0.10 Gm/M^2 /day | audiotoxicity ([6]; in vivo): no audiotoxicity was evident | patients coming off study ([6]; in vivo): came off study more frequently | side-effects after one year ([6]; in vivo): equivalent to placebo | spermidine contents ([7]; Barrett's lesions and normal squamous esophageal tissue): suppressed by systemic DFMO treatment and recovered to untreated control values when DFMO therapy was discontinued | spermidine and spermine levels ([7]; gastric tissue and small bowel): did not affect the levels of either of these two amines in gastric tissue and small bowel | buccal mucosal ODC and polyamine contents ([8]; buccal mucosa): unaffected | polyamine contents in colorectal tissue biopsies ([8]; colorectal tissue): reduced polyamine contents in colorectal tissue biopsies | effect of DFMO on toxicity of the sulindac metabolites [9]: did not increase the toxicity of the sulindac metabolites in long-term survival studies | wound healing problems [10]: problems with wound healing have not been experienced | viability at 5000 µM [11]: ~100% | IC50 ([12]; 24 h, read-out: concentration at 50% cell survival): 500 µM | minimal effective concentration ([12]; 24 h, read-out: lowest concentration (selectively) toxic to cells with an activated Ki-ras): 50 µM | viability at 5000 µM ([12]; Caco-2, 24 h, read-out: cell survival, of controls): 20 to 40% | inhibition at 5000 µM ([12]; Caco-2, 24 h, read-out: reduction of colony-forming efficiency of the Ki-ras transfectants): 40% | amount of biochemically active p21 ras in existing tumors [13]: reduced the amount of biochemically active p21 ras in existing tumors | tumors harboring Ki-ras mutations ([13]; reduced from 90%): 36% | chemoprevention / inhibition of tumor development in animal models [14]: potent inhibitor of carcinogenesis; also recorded: inhibits the development of many cancers including carcinogen-induced colon polyps and cancer; also recorded: inhibits colon carcinogenesis in carcinogen-treated rodents | effects on hearing ([15]; 0.4gr/M^2 /day for up to one year): not observed | audiometric changes ([15]; about 6 months at 0.50 g/m^2 /d (total dose 90 gm)): no audiometric changes | patients with hearing losses ([15]; cumulative doses above 250 g/m^2): up to 75 % of patients | patients with demonstrable hearing deficit ([15]; cumulative doses below 150 g/m^2): less than 10 % of the patients | effects on hearing / hearing loss, reversibility ([15]; other clinical trials): hearing loss, which was reversible after the drug treatment was discontinued; also recorded: totally reversible upon drug discontinuation; also recorded: effects on hearing at high doses of 4 gr/M^2 /day that resolve when it is discontinued | decrease in tumor putrescine levels ([16]; rat-tumor model): 90% | peripheral platelet counts [16]: without suppressing peripheral platelet counts | platelet counts [17]: significantly reduces platelet counts compared with controls | growth of MCA sarcoma [18]: reduces the growth rate of an MCA sarcoma but does not produce tumor regression | inhibition of ODC [19]: powerful inhibitor of ODC, both in vitro and in vivo | inhibition of ODC [19, 31]: enzyme-activated, irreversible inhibitor of ornithine decarboxylase (ODC) | uptake of exogenous putrescine ([20]; cells treated in vivo): significantly increase their uptake of exogenous putrescine | intracellular polyamine concentrations [20]: decrease in putrescine and spermidine concentrations | intracellular polyamine concentrations [20, 31]: depletion in the intracellular concentrations of putrescine and its derivative, spermidine | activity in chemotherapy trials ([21]; human cancer): not to be an active cytotoxic agent | activity in malignant brain tumors ([21]; malignant brain tumors): moderate activity | expected onset of hearing loss [22]: > 800 days

CC1=C(CC(=O)O)c2cc(F)ccc2/C1=C\c1ccc([S+](C)[O-])cc1 (stereo not drawn) [sulindac, (Z)-5-Fluoro-2-methyl-1-((4 (methylsulfinyl)phenyl)methylene) 1H-indene-3-acetic acid]
Ki-ras mutation / tumors harboring an activated Ki-ras [13]: reduces the number of tumors harboring an activated Ki-ras | apoptosis in AOM-treated rodent model [23]: cause apoptosis | inhibition of colon carcinogenesis in AOM-treated rat model [23]: effectively inhibit colon carcinogenesis | time of peak plasma levels ([24]; fasting patients): about 2 hours | half-life ([24]; human, in vivo, po): 7 h | mean half-life ([24]; human, in vivo, po): 7.8 h | absorption of drug ([24]; oral administration): about 90% | regression of adenomas in FAP patients ([25]; FAP patients): regression of adenomas | clinical regression of polyps ([25]; several studies): can cause clinical regression of polyps | effect on sporadic adenomas ([25]; sporadic adenomas): no such effect | analgesic and antiinflamatory effects [26]: comparable to those achieved by aspirin (4 g per day), ibuprofin (1200 mg per day), indomethacin (125 mg per day), and phenylbutazone (400 to 600 mg per day) | COX / prostaglandin synthesis inhibition [27]: inhibit cycloxygenase and prostaglandin synthesis | borderline elevations in one or more liver function test ([28]; human, in vivo): 15 % of clinical trial patients | gastrointestinal toxicity / ulceration ([28]; human, in vivo): serious gastrointestinal toxicity such as bleeding, ulceration, and perforation | meaningful elevations in liver function test (3 times upper limit of normal) ([28]; human, in vivo): less than 1% | mild gastrointestinal effects ([28]; human, in vivo): ~20 % of patients | skin rash and pruritus ([28]; human, in vivo): 5 % of patients | gastrointestinal toxicity / ulceration ([28]; human, in vivo, listed as Sulindac): G.I. ulceration that in general is dose-related; also recorded: can produce gastric irritation and bleeding | granulocytosis, aplastic anemia, hemolytic anemia ([28]; rare adverse effects): less than 1% | gastrointestinal pain ([28]; therapeutic doses): 10% | 150 mg per day vs. twice per day [29]: comparable results | safety in phase IIb study [29]: safe | polyp regression and development of new polyps ([29]; 150 mg per day or twice per day): regression of extant polyps shown | inhibition of carcinogenesis in the AOM-treated rat [30]: inhibit carcinogenesis in the AOM-treated rat, with similar potencies
